# Test results published in US20090221653A1, “7-(2-amino-1-hydroxy-ethyl)-4-hydroxybenzothiazol-2(3H)-one-derivatives as beta2 adrenoreceptor agonists” (AstraZeneca AB, priority 2005, published 2009).
# Structures can show the parent of a compound that is named as a salt.
# Legend:
# β2 receptor = target: T1, β2 receptor (Homo sapiens, UniProt P07550); experiment: Adrenergic β2 mediated cAMP production in H292 cells (AlphaScreen cAMP detection); type: cell-based; conditions: for EC50: cAMP, test compounds incubated 10 minutes, 300 μM rolipram; for Intrinsic Activity: fraction relative to the maximum activity determined for formoterol, 10 minutes incubation
# T1 construct: endogenous in cells; host or cells: H292 cells
# T1 sequence (P07550 whole entry): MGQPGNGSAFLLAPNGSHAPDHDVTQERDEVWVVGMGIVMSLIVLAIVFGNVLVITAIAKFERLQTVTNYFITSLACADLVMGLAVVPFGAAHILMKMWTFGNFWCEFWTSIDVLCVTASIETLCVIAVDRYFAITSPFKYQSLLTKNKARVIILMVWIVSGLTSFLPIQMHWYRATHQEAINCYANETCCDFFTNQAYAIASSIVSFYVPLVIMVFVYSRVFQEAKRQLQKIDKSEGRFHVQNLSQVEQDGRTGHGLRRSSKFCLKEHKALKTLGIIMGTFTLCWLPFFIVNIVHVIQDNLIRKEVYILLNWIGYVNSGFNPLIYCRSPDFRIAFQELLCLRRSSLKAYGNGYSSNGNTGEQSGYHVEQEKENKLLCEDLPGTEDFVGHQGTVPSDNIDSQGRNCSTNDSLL
# Method: H292 cells were grown in RPMI (Roswell Park Memorial Institute) medium containing, 10% (v/v) FBS (foetal bovine serum) and 2 mM L-glutamine. Cells were grown in 225 cm2 flasks containing 25 mL media in a humidified incubator at 37° C., 5% CO2. Cells were harvested from the flask and passaged at a 1 in 10 dilution once per week.
# The media from flasks containing H292 cells was removed, rinsed with 10 mL PBS (phosphate buffered saline) and replaced with 10 mL Accutase™ cell detachment solution. Flasks were incubated for 15 minutes in a humidified incubator at 37° C., 5% CO2. The cell suspension was counted and the cells re-suspended in RPMI media (containing 10% (v/v) FBS and 2 mM L-glutamine) at 0.05×10^6 cells per mL. 5000 cells in 100 μL were added to each well of a tissue-culture-treated 96-well plate and the cells incubated overnight in a humidified incubator at 37° C., 5% CO2. The culture media was removed, washed twice with 100 μL assay buffer and replaced with 50 μL assay buffer. Cells were rested at room temperature for 20 minutes after which time 25 μL of rolipram (1.2 mM made up in assay buffer containing 2.4% (v/v) dimethylsulphoxide) was added. Cells were incubated with rolipram for 10 minutes after which time test compounds (made up as ×4 concentrated stocks in assay buffer containing 4% (v/v) dimethylsulphoxide) were added and the cells were incubated for 10 minutes at room temperature. Final rolipram concentration in the assay was 300 μM and final vehicle concentration was 1.6% (v/v) dimethylsulphoxide. The reaction was stopped by removing supernatants, washing once with 100 μL assay buffer and replacing with 50 μL lysis buffer. The cell monolayer was frozen at −80° C. for 30 minutes (or overnight).
# (§1) The concentration of cAMP (cyclic adenosine monophosphate) in the cell lysate was determined using the AlphaScreen™ methodology. The frozen cell plate was thawed for 20 minutes on a plate shaker then 10 μL of the cell lysate was transferred to a 96-well white plate. 40 μL of mixed AlphaScreen™ detection beads (containing equal volumes of donor beads (pre-incubated with biotinylated cAMP in the dark for 30 minutes) and acceptor beads), was added to each well and the plate incubated at room temperature for 10 hours in the dark. The AlphaScreen™ signal was measured using an EnVision spectrophotometer (Perkin-Elmer Inc.) with the recommended manufacturer's settings. cAMP concentrations were determined by reference to a calibration curve determined in the same experiment using standard cAMP concentrations (made up in lysis buffer in a 96-well tissue-culture-treated plate and frozen/thawed alongside the test samples) and detected using the same protocol. Concentration response curves for agonists were constructed to determine both the pEC50 and Intrinsic Activity.
# Adrenergic β2 = target: T2, Adrenergic β2 (Homo sapiens, UniProt P07550); experiment: Alternative Adrenergic β2 Mediated cAMP Production in H292 cells (AlphaScreen cAMP detection); type: cell-based; conditions: for EC50: cAMP, test compounds incubated 60 minutes, 300 μM rolipram, read-out: β2 pEC50 (converted); for β2 Int Act: fraction relative to the maximum activity determined for formoterol, 60 minutes incubation
# T2 construct: endogenous in cells; host or cells: H292 cells
# T2 sequence (P07550 whole entry): as above
# Method: H292 cells were grown in 225 cm2 flasks incubator at 37° C., 5% CO2 in RPMI medium containing, 10% (v/v) FBS (foetal bovine serum) and 2 mM L-glutamine.
# Adherent H292 cells were removed from tissue culture flasks by treatment with Accutase™ cell detachment solution for 15 minutes. Flasks were incubated for 15 minutes in a humidified incubator at 37° C., 5% CO2. Detached cells were re-suspended in RPMI media (containing 10% (v/v) FBS and 2 mM L-glutamine) at 0.05×10^6 cells per mL. 5000 cells in 100 μL were added to each well of a tissue-culture-treated 96-well plate and the cells incubated overnight in a humidified incubator at 37° C., 5% CO2. The culture media was removed and cells were washed twice with 100 μL assay buffer and replaced with 50 μL assay buffer (HBSS solution containing 10 mM HEPES pH7.4 and 5 mM glucose). […] Cells were incubated with rolipram for 10 minutes after which time test compounds were added and the cells were incubated for 60 minutes at room temperature. […] The reaction was stopped by removing supernatants, washing once with 100 μL assay buffer and replacing with 50 μL lysis buffer. The cell monolayer was frozen at −80° C. for 30 minutes (or overnight).
# as §1, with “using” for “using the”, “pre-incubated” for “(containing equal volumes of donor beads (pre-incubated”, “cAMP,” for “cAMP in the dark for 30 minutes) and acceptor beads),”, “concentrations.” for “concentrations (made up in lysis buffer in a 96-well tissue-culture-treated plate and frozen/thawed alongside the test samples) and detected using the same protocol.”, “constructed and data was fitted to a four parameter logistic equation” for “constructed”
# [1] = target: T3, recombinant human Dopamine Subtype D2s receptors (Homo sapiens, UniProt P14416); experiment: Dopamine D2 selectivity assay, inhibition of [3H]-spiperone binding; conditions: membranes, [3H]-spiperone 0.16 nM; read-out: D2 bind pIC50 (converted)
# T3 construct: purchased Perkin Elmer
# T3 sequence (P14416 1-414 isoform P14416-2): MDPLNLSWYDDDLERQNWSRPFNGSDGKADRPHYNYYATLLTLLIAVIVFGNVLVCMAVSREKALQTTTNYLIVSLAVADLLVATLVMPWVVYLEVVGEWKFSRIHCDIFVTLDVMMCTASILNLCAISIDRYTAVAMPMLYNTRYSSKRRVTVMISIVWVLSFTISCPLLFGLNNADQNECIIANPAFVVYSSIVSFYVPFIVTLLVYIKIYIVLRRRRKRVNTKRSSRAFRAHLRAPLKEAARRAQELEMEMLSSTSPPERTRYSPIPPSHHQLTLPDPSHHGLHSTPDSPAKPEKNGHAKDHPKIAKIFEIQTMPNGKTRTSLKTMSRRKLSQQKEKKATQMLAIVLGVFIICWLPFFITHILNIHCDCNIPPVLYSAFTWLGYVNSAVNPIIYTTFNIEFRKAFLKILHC
# Method: Membranes containing recombinant human Dopamine Subtype D2s receptors were obtained from Perkin Elmer. These were diluted in Assay Buffer ([…] HEPES, 1 mM EDTA, 120 mM NaCl, 0.1% gelatin, pH 7.4) to provide a final concentration of membranes that gave a clear window between maximum and minimum specific binding.
# Assays were performed in U-bottomed 96-well polypropylene plates. […] For each assay plate 8 replicates were obtained for [^3H]-spiperone binding in the presence of 30 μL vehicle (10% (v/v) DMSO in Assay Buffer; defining maximum binding) or 30 μL Haloperidol (10 μM final concentration; defining non-specific binding (NSB)). Membranes were then added to achieve a final volume of 300 μL. The plates were incubated for 2 hours at room temperature and then filtered onto PEI coated GF/B filter plates, pre-soaked for 1 hour in Assay Buffer, using a 96-well plate Tomtec cell harvester. Five washes with 250 μL wash buffer (50 mM HEPES, 1 mM EDTA, 120 mM NaCl, pH 7.4) were performed at 4° C. to remove unbound radioactivity. The plates were dried then sealed from underneath using Packard plate sealers and MicroScint-O (50 μL) was added to each well. The plates were sealed (TopSeal A) and filter-bound radioactivity was measured with a scintillation counter (TopCount, Packard BioScience) using a 3-minute counting protocol. Total specific binding (B0) was determined by subtracting the mean NSB from the mean maximum binding. NSB values were also subtracted from values from all other wells.
EC50 (β2 receptor) [nM],Intrinsic Activity (β2 receptor),EC50 (Adrenergic β2) [nM],β2 Int Act (Adrenergic β2),IC50 [1] [nM],SMILES
5.01,0.8,3.16,1,,"CN(CCCSCCNC[C@H](O)c1ccc(O)c2[nH]c(=O)sc12)CCc1ccccc1 [Example 12, 4-Hydroxy-7-((1R)-1-hydroxy-2-{[2-({3-[methyl(2-phenylethyl)amino]propyl}-thio)ethyl]amino}ethyl)-1,3-benzothiazol-2(3H)-one trifluoroacetate]"
,1.0,,1,1000,"Cl.O=c1[nH]c2c(O)ccc([C@@H](O)CNCCSCCCOCCc3ccccc3)c2s1 [Example 8, 4-Hydroxy-7-{(1R)-1-hydroxy-2-[(2-{[3-(2-phenylethoxy)propyl]thio}-ethyl)amino]ethyl}-1,3-benzothiazol-2(3H)-one hydrochloride]"
0.0631,0.7,0.0501,0.9,,"Cl.O=c1[nH]c2c(O)ccc([C@@H](O)CNCCCSCCCOCCc3ccc(Br)cc3)c2s1 [Example 5, 7-((1R)-2-{[3-({3-[2-(4-Bromophenyl)ethoxy]propyl}thio)propyl]amino}-1-hydroxyethyl)-4-hydroxy-1,3-benzothiazol-2(3-H)-one hydrochloride]"
